The supplement of paper PMC10307832

Compound: CC1=C(C(=O)N2C=CSC2=N1)CCN3CCC(=C(C4=CC=CC=C4)C5=CC=C(C=C5)F)CC3
Experiment: relative viability (nuclei count vs DMSO), 5 days (fraction); higher = more cells survive
How it was run: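 Only plates meeting two conditions passed: control CV below 25% and at least one doubling. Lung cancer cell lines, kept overnight at 37 °C in 1536-well plates, were pinned with five library-drug doses (not always all listed) √10 apart on vehicle-anchored plates and grown 5 days without medium change. A one-step fix, permeabilisation and Hoechst stain preceded 4× imaging and MetaXpress nuclear counting. Viability equals treated-well nuclei divided by vehicle-well nuclei, as the median over plates.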

Cell Line | relative viability (0.08 µM) | relative viability (0.253 µM) | relative viability (0.8 µM) | relative viability (2.53 µM) | relative viability (8 µM)
NCI-H838 | 0.779 | 0.998 | 0.987 | 1.22 | 0.704
NCI-H1793 | 0.761 | 0.891 | 0.912 | 0.831 | 0.711
NCI-H520 | 0.981 | 0.974 | 1.03 | 1.05 | 0.657
HCC-44 | 1.07 | 1.04 | 0.997 | 1.15 | 0.888
NCI-H2023 | 0.997 | 0.884 | 0.991 | 1.11 | 0.695
NCI-H1975 | 0.893 | 0.961 | 1 | 0.992 | 0.662
NCI-H2342 | 0.761 | 1.03 | 0.949 | 1.02 | 0.792
COR-L 105 | 0.89 | 0.928 | 0.787 | 0.852 | 0.845
CAL-12T | 1.02 | 1.08 | 0.953 | 1.02 | 0.723
NCI-H2405 | 0.967 | 0.975 | 0.99 | 1.11 | 0.82
NCI-H1395 | 0.953 | 0.992 | 0.762 | 0.992 | 0.872
NCI-H1648 | 0.797 | 0.802 | 0.802 | 0.706 | 0.883
PC-14 | 0.939 | 1.02 | 1.06 | 1.1 | 0.624
A549 | 0.841 | 1.05 | 1.01 | 1.06 | 0.433
LOU-NH91 | 1.01 | 0.927 | 0.973 | 1.04 | 0.911
EMC-BAC-2 | 1.01 | 0.798 | 0.908 | 1.12 | 0.796
EBC-1 | 0.845 | 0.881 | 1.09 | 1.02 | 0.671
NCI-H2009 | 1.06 | 1.07 | 0.999 | 1.05 | 0.871
NCI-H460 | 0.923 | 0.956 | 1.06 | 1.04 | 0.567

Cell Line | relative viability (0.08 µM) | relative viability (0.253 µM) | relative viability (0.8 µM) | relative viability (2.53 µM) | relative viability (8 µM)
NCI-H3122 | 0.951 | 1.04 | 1.01 | 1.12 | 0.715
NCI-H1563 | 0.903 | 0.949 | 0.882 | 0.986 | 0.918
NCI-H1666 | 0.936 | 0.941 | 0.978 | 1.06 | 0.815
PC-3 [JPC-3] | 0.987 | 0.939 | 1.04 | 1.08 | 0.839
UMC-11 | 0.914 | 0.952 | 0.936 | 1.17 | 0.713
SW 1573 | 0.892 | 1.12 | 1.08 | 1.04 | 0.61
SK-LU-1 | 0.845 | 0.955 | 1.18 | 1.15 | 0.648
201T | 1.04 | 1.04 | 0.986 | 1.04 | 1.01
EPLC-272H | 0.832 | 0.914 | 0.864 | 1.03 | 0.743
NCI-H441 | 0.736 | 1.06 | 1.15 | 1.05 | 0.593
NCI-H1651 | 0.823 | 0.968 | 0.976 | 1.01 | 0.72
HCC-366 | 0.852 | 1.02 | 1.06 | 1.05 | 0.502
LK-2 | 0.955 | 0.902 | 1.07 | 0.998 | 0.658
Calu-6 | 0.906 | 1.02 | 1.04 | 1.03 | 0.602
NCI-H1944 | 0.969 | 0.94 | 0.96 | 0.958 | 0.751
NCI-H647 | 0.996 | 0.894 | 0.877 | 1.09 | 0.462
NCI-H2347 | 0.964 | 1.07 | 1.04 | 1.05 | 0.775
H3255 | 0.802 | 1.01 | 1.04 | 1.01 | 0.832
NCI-H1755 | 0.926 | 0.998 | 1.04 | 1.02 | 0.777
